Experimental data: ChEMBL document CHEMBL1201862, “PubChem BioAssay data set” (2004)
The source made the active and inactive calls.

Assays:
[1] = intracellular Trypanosoma cruzi inhibitors in host cells – cell-based, plate reader, cherry-pick samples, set 3, dose response (AID 651818); format: functional;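 further: compounds incubated with infected cells for about four days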
[2] = molecular target: FAD-linked sulfhydryl oxidase ALR (Homo sapiens, UniProt P55789); test: ALR-catalysed DTT oxidation blockers – biochemical, H2O2 detection, luminescence, cherry-pick, dose response (AID 493248)
FAD-linked sulfhydryl oxidase ALR, sequence (P55789 whole entry): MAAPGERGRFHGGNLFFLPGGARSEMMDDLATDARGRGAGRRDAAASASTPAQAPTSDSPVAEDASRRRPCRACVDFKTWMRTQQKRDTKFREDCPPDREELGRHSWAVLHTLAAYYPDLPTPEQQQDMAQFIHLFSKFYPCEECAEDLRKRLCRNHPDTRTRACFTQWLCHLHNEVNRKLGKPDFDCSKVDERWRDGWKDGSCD

Streptococcus = test: GAS UMAA2166 growth inhibition – luminescence, BacTiterGlo, counter-screen for streptokinase expression inhibitor project, dose response (AID 1915); format: functional, organism-based;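 further: potency for reduction of bacterial viability or growth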
[3] = A549 cell cytotoxicity, dose response, cytotoxicity control, plate reader, cherry-pick, antagonist series (AID 743412); format: functional, cell-based
Streptokinase A = molecular target: T1, Streptokinase A (Streptococcus pyogenes serotype M1, UniProt P10520); test: viability-normalized secreted streptokinase activity reduction – plasminogen activation absorbance, OD405, dose response (AID 1914); format: functional, Streptococcus pyogenes M1 GAS;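 further: secreted streptokinase activity via plasminogen activation per viability signal from cell pellet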
T1 sequence (P10520 whole entry): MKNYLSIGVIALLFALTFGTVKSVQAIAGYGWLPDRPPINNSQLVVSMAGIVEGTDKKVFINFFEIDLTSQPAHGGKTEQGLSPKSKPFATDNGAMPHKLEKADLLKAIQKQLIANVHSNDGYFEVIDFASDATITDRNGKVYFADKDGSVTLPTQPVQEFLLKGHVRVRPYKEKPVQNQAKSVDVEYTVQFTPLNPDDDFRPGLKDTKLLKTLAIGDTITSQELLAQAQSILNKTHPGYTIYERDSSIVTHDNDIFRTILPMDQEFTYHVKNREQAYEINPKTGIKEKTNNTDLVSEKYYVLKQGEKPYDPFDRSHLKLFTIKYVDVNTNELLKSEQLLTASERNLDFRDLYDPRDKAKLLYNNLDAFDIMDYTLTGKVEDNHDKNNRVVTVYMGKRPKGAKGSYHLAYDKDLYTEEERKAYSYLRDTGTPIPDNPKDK

[4] = system: Streptococcus sp. 'group A'; test: Streptococcus pyogenes SK(-)GAS viability under kanamycin – luminescence, BacTiterGlo, confirmation, counter-screen for streptokinase expression inhibitor project, dose response (AID 1900); format: functional, organism-based
[5] = toxicity toward HepG2 liver cells – cell-based, plate reader, cherry-pick, antagonist series, cytotoxicity control, dose response (AID 743416); format: functional
[6] = NIH3T3 cell viability loss – ATP luminescence, mouse fibroblasts, counter-screen, dose response (AID 2010); format: functional, cell-based;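 further: cells exposed to compound for about 90 hours before reading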
[7] = Trypanosoma cruzi growth suppression in host cells – NIH3T3 host cells, beta-gal luminescence, confirmation (AID 2044); format: functional, cell-based;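 further: intracellular parasites grown in NIH/3T3 mouse fibroblasts as host cells; luminescent beta-galactosidase reporter signal from transgenic T. cruzi replicating inside host cells; inhibitors lower the luminescence signal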
[8] = viability loss in HEK293 cells – cell-based, plate reader, cherry-picked samples, cytotoxicity control, dose response (AID 743446); format: functional
Aminopeptidase N = molecular target: T2, Aminopeptidase N (Plasmodium falciparum FcB1/Columbia, UniProt O96935); test: malaria alanyl aminopeptidase activity blockers – biochemical, fluorogenic H-Leu-NHMec substrate, 1536-well (AID 1445); parameters: species or system Plasmodium falciparum 3D7, 3D7
T2 sequence (O96935 whole entry): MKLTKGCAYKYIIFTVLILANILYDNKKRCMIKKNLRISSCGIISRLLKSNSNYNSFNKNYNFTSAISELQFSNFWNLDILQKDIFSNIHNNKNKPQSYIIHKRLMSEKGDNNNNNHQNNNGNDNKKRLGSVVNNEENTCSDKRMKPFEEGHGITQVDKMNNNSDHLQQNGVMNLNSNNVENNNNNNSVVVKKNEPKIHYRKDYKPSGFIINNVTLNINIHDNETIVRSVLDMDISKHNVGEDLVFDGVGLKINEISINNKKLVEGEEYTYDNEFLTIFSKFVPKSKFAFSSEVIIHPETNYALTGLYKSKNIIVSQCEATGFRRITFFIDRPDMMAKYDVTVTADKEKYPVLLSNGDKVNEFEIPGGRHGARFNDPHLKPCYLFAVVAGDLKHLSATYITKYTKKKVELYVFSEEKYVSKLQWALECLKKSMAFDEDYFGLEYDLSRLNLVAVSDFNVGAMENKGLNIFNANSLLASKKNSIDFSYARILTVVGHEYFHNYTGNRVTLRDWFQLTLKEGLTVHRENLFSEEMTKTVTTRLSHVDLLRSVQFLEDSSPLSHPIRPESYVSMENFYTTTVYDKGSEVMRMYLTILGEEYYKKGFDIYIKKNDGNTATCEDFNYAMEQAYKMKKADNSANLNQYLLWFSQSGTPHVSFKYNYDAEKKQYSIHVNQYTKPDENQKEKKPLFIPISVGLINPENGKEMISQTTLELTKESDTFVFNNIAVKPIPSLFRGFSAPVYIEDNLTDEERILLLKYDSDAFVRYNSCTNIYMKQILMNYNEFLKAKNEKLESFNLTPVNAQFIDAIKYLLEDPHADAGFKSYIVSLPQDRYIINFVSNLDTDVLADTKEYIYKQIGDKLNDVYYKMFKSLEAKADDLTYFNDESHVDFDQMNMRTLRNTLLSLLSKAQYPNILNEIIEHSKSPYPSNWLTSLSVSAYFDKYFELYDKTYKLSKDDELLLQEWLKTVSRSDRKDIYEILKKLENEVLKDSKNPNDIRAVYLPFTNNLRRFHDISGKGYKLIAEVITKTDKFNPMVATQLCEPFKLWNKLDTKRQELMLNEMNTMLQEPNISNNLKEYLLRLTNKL

For `C[C@@H]1CN([C@H](C)CO)C(=O)c2cc(NS(=O)(=O)c3ccc(Cl)cc3)ccc2O[C@H]1CN(C)Cc1ccc(Cl)c(Cl)c1`, the AC50 [1] was 1.81 µM (active).
For `C[C@@H]1CCCCO[C@H](CN(C)Cc2ccccc2)[C@@H](C)CN([C@H](C)CO)C(=O)c2cc(NC(=O)Nc3ccc(C(F)(F)F)cc3)ccc2O1`, the AC50 [1] was 5.97 µM (active).
With `COc1ccc(C2CC(c3ccccc3)=NN2c2ccccc2)c(C(=O)O)c1OC` (stereo unspecified) the AC50 [2] was 4.74 µM (active).
In the case of `C[C@@H]1CCCCO[C@H](CN(C)C(=O)Nc2cccc3ccccc23)[C@@H](C)CN([C@H](C)CO)C(=O)c2cc(NS(=O)(=O)c3ccc(Cl)cc3)ccc2O1`, the AC50 [1] is reported as 3.37 µM (active).
For `Cc1ccc(C(=O)NCCSc2snnc2C)cc1`, the AC50 [2] was 0.117 µM (active).
In the case of `CCOc1cccc2sc(Nc3nc4ccc(NC(C)=O)cc4s3)nc12`, the EC50 (Streptococcus) is reported as > 150 µM (not active), the AC50 [3] is reported as 9.66 µM (active) and the EC50 (Streptokinase A) is reported as > 150 µM (not active). The EC50 [4] was 23.3 µM (active), the AC50 [5] was 5.46 µM (active) and the EC50 [6] was > 60 µM (not active). For the same compound, the EC50 [7] was 2.44 µM (active) and the AC50 [8] was 24.5 µM (active).
In the case of `CCO/C(O)=C1/C(CC)=Nc2ccccc2N=C1NS(=O)(=O)c1cc(Br)ccc1Br`, the IC50 (Aminopeptidase N) is reported as 30.3 µM (active).
With `COc1ccc(S(=O)(=O)Nc2ccc3c(c2)CC(=O)N([C@H](C)CO)C[C@@H](C)[C@@H](CN(C)Cc2ccc(-c4ccccc4)cc2)O3)cc1` the AC50 [1] was 2.35 µM (active).
For `O=C(NN/C=C1\C(=O)N(c2ccccc2Cl)C(=O)c2ccccc21)c1cccnc1`, the IC50 (Aminopeptidase N) was 32.6 µM (active).
